In paper PMC8640094, “Diaportones A–C: Three New Metabolites From Endophytic Fungus Diaporthe foeniculina BZM-15” (Frontiers in Chemistry, 2021):
pIC50: −log10 of the molar value. Values joined by “and” are separate entries in the source; they are usually repeats but may differ in a detail not shown here. Equal entries are not always repeated.

Experiments:
normal cell line LX-2 = assay: MTT cytotoxicity assay, normal cell line LX-2; format: cell-based; details: for cell inhibition: listed as Comp.5
Protocol: (§1) The cytotoxicity of all compounds against three human tumor cell lines, SF-268 (CNS cancer), MCF-7 (breast cancer), and HepG2 (hepatoma cancer), and normal cell line LX-2 was tested using the MTT assay. […] All cells were seeded into 96-well plates at 5 × 10^4 cells/ml and incubated at 37°C under a 5% CO2 atmosphere for 24 h. Then, the tested compounds were added. After 72 h, MTT solution was added into each well, which was further incubated. The cell-free supernatant was removed and formazan crystals were subsequently dissolved in DMSO. Optical density (OD) was recorded at 490 nm on a microplate reader to calculate the IC50 values.

MCF-7 (breast cancer) = assay: MTT cytotoxicity assay, MCF-7 cells; format: cell-based, human; details: for cell inhibition: listed as Comp.5
Protocol: as §1

HepG2 (hepatoma cancer) = assay: MTT cytotoxicity assay, HepG2 cells; format: cell-based, human; details: for cell inhibition: listed as Comp.5
Protocol: (§2) The cytotoxicity of all compounds against three human tumor cell lines, SF-268 (CNS cancer), MCF-7 (breast cancer), and HepG2 (hepatoma cancer), and normal cell line LX-2 was tested using the MTT assay. Adriamycin was used as a positive control. All cells were seeded into 96-well plates at 5 × 10^4 cells/ml and incubated at 37°C under a 5% CO2 atmosphere for 24 h. Then, the tested compounds were added. After 72 h, MTT solution was added into each well, which was further incubated. The cell-free supernatant was removed and formazan crystals were subsequently dissolved in DMSO. Optical density (OD) was recorded at 490 nm on a microplate reader to calculate the IC50 values.

SF-268 (CNS cancer) = assay: MTT cytotoxicity assay, SF-268 cells; format: cell-based, human; details: for cell inhibition: SF268 cells, listed as Comp.5
Protocol: as §2

[1] = LX-2, c 1.00 μM, three replicates
[2] = LX-2, c 2.00 μM, three replicates
[3] = LX-2, c 4.00 μM, three replicates
[4] = LX-2, c 8.00 μM, three replicates
[5] = LX-2, c 16.00 μM, three replicates
[6] = LX-2, c 32.00 μM, three replicates
[7] = LX-2, c 64.00 μM, three replicates
[8] = LX-2, c 128.00 μM, three replicates

SMILES: CC(C)C12CC1C(C)(O)CC2=O (centres unmarked) [compound 5, diaportone C]
- inhibition at 1 µM (normal cell line LX-2; [1]): 11.1%
- cell inhibition (normal cell line LX-2; [1]): 11.45% and 12.45%
- inhibition at 2 µM (normal cell line LX-2; [2]): 13.5%
- cell inhibition (normal cell line LX-2; [2]): 13.52% and 12.56%
- inhibition at 4 µM (normal cell line LX-2; [3]): 23.6%
- cell inhibition (normal cell line LX-2; [3]): 24.13% and 24.41%
- inhibition at 8 µM (normal cell line LX-2; [4]): 30.1%
- cell inhibition (normal cell line LX-2; [4]): 32.44% and 30.6%
- inhibition at 16 µM (normal cell line LX-2; [5]): 31.7%
- cell inhibition (normal cell line LX-2; [5]): 33.08% and 32.3%
- inhibition at 32 µM (normal cell line LX-2; [6]): 46.6%
- cell inhibition (normal cell line LX-2; [6]): 43.56% and 46.07%
- inhibition at 64 µM (normal cell line LX-2; [7]): 70.3%
- cell inhibition (normal cell line LX-2; [7]): 71.68% and 70.2%
- inhibition at 128 µM (normal cell line LX-2; [8]): 89.2%
- cell inhibition (normal cell line LX-2; [8]): 89.22% and 90.45%
- pIC50 (normal cell line LX-2; MTT, 72 h, mean ± SD (n = 3)): < 4.40
- inhibition at 1 µM (MCF-7 (breast cancer); Homo sapiens, MCF7, MCF-7, c 1.00 μM, three replicates, read-out: cell inhibition): 8.13%
- inhibition at 2 µM (MCF-7 (breast cancer); Homo sapiens, MCF7, MCF-7, c 2.00 μM, three replicates, read-out: cell inhibition): 15.1%
- inhibition at 4 µM (MCF-7 (breast cancer); Homo sapiens, MCF7, MCF-7, c 4.00 μM, three replicates, read-out: cell inhibition): 21.1%
- inhibition at 8 µM (MCF-7 (breast cancer); Homo sapiens, MCF7, MCF-7, c 8.00 μM, three replicates, read-out: cell inhibition): 28.2%
- inhibition at 16 µM (MCF-7 (breast cancer); Homo sapiens, MCF7, MCF-7, c 16.00 μM, three replicates, read-out: cell inhibition): 33.4%
- inhibition at 32 µM (MCF-7 (breast cancer); Homo sapiens, MCF7, MCF-7, c 32.00 μM, three replicates, read-out: cell inhibition): 41.7%
- inhibition at 64 µM (MCF-7 (breast cancer); Homo sapiens, MCF7, MCF-7, c 64.00 μM, three replicates, read-out: cell inhibition): 54.1%
- inhibition at 128 µM (MCF-7 (breast cancer); Homo sapiens, MCF7, MCF-7, c 128.00 μM, three replicates, read-out: cell inhibition): 70.1%
- pIC50 (MCF-7 (breast cancer); Homo sapiens, MCF7, MTT, 72 h, mean ± SD (n = 3)): < 4.40
- cell inhibition (MCF-7 (breast cancer); MCF-7, c 1.00 μM, three replicates): 8.16% and 9.09%
- cell inhibition (MCF-7 (breast cancer); MCF-7, c 2.00 μM, three replicates): 16.13% and 15.25%
- cell inhibition (MCF-7 (breast cancer); MCF-7, c 4.00 μM, three replicates): 22.04% and 21.31%
- cell inhibition (MCF-7 (breast cancer); MCF-7, c 8.00 μM, three replicates): 28.45% and 29.1%
- cell inhibition (MCF-7 (breast cancer); MCF-7, c 16.00 μM, three replicates): 33.57% and 33.06%
- cell inhibition (MCF-7 (breast cancer); MCF-7, c 32.00 μM, three replicates): 42.15% and 41.31%
- cell inhibition (MCF-7 (breast cancer); MCF-7, c 64.00 μM, three replicates): 53.35% and 53.16%
- cell inhibition (MCF-7 (breast cancer); MCF-7, c 128.00 μM, three replicates): 71.36% and 73.18%
- cell inhibition (HepG2 (hepatoma cancer); HepG2, c 1.00 μM, three replicates): 3.46% and 5.11%
- cell inhibition (HepG2 (hepatoma cancer); HepG2, c 2.00 μM, three replicates): 7.29% and 7.31%
- cell inhibition (HepG2 (hepatoma cancer); HepG2, c 4.00 μM, three replicates): 9.34% and 11.19%
- cell inhibition (HepG2 (hepatoma cancer); HepG2, c 8.00 μM, three replicates): 16.9% and 15.77%
- cell inhibition (HepG2 (hepatoma cancer); HepG2, c 16.00 μM, three replicates): 25.3% and 27.11%
- cell inhibition (HepG2 (hepatoma cancer); HepG2, c 32.00 μM, three replicates): 44.75% and 45.2%
- cell inhibition (HepG2 (hepatoma cancer); HepG2, c 64.00 μM, three replicates): 77.47% and 75.51%
- cell inhibition (HepG2 (hepatoma cancer); HepG2, c 128.00 μM, three replicates): 83.13% and 82.98%
- inhibition at 1 µM (HepG2 (hepatoma cancer); Homo sapiens, HepG2, HepG2, c 1.00 μM, three replicates, read-out: cell inhibition): 3.33%
- inhibition at 2 µM (HepG2 (hepatoma cancer); Homo sapiens, HepG2, HepG2, c 2.00 μM, three replicates, read-out: cell inhibition): 7.36%
- inhibition at 4 µM (HepG2 (hepatoma cancer); Homo sapiens, HepG2, HepG2, c 4.00 μM, three replicates, read-out: cell inhibition): 9.89%
- inhibition at 8 µM (HepG2 (hepatoma cancer); Homo sapiens, HepG2, HepG2, c 8.00 μM, three replicates, read-out: cell inhibition): 16.4%
- inhibition at 16 µM (HepG2 (hepatoma cancer); Homo sapiens, HepG2, HepG2, c 16.00 μM, three replicates, read-out: cell inhibition): 27.6%
- inhibition at 32 µM (HepG2 (hepatoma cancer); Homo sapiens, HepG2, HepG2, c 32.00 μM, three replicates, read-out: cell inhibition): 46.2%
- inhibition at 64 µM (HepG2 (hepatoma cancer); Homo sapiens, HepG2, HepG2, c 64.00 μM, three replicates, read-out: cell inhibition): 77.2%
- inhibition at 128 µM (HepG2 (hepatoma cancer); Homo sapiens, HepG2, HepG2, c 128.00 μM, three replicates, read-out: cell inhibition): 81.1%
- pIC50 (HepG2 (hepatoma cancer); Homo sapiens, HepG2, MTT, 72 h, mean ± SD (n = 3)): < 4.40
- inhibition at 1 µM (SF-268 (CNS cancer); Homo sapiens, SF-268, SF268 cells, c 1.00 μM, triplicate values, read-out: cell inhibition): 6.47%
- inhibition at 2 µM (SF-268 (CNS cancer); Homo sapiens, SF-268, SF268 cells, c 2.00 μM, triplicate values, read-out: cell inhibition): 15.7%
- inhibition at 4 µM (SF-268 (CNS cancer); Homo sapiens, SF-268, SF268 cells, c 4.00 μM, triplicate values, read-out: cell inhibition): 22.9%
- inhibition at 8 µM (SF-268 (CNS cancer); Homo sapiens, SF-268, SF268 cells, c 8.00 μM, triplicate values, read-out: cell inhibition): 22.1%
- inhibition at 16 µM (SF-268 (CNS cancer); Homo sapiens, SF-268, SF268 cells, c 16.00 μM, triplicate values, read-out: cell inhibition): 27.1%
- inhibition at 32 µM (SF-268 (CNS cancer); Homo sapiens, SF-268, SF268 cells, c 32.00 μM, triplicate values, read-out: cell inhibition): 31.9%
- inhibition at 64 µM (SF-268 (CNS cancer); Homo sapiens, SF-268, SF268 cells, c 64.00 μM, triplicate values, read-out: cell inhibition): 67.2%
- inhibition at 128 µM (SF-268 (CNS cancer); Homo sapiens, SF-268, SF268 cells, c 128.00 μM, triplicate values, read-out: cell inhibition): 72.8%
- pIC50 (SF-268 (CNS cancer); Homo sapiens, SF-268, MTT, 72 h, mean ± SD (n = 3), read-out: IC50 SF268): < 4.40
- cell inhibition (SF-268 (CNS cancer); c 1.00 μM, triplicate values): 6.8% and 6.81%
- cell inhibition (SF-268 (CNS cancer); c 2.00 μM, triplicate values): 13.52% and 13.37%
- cell inhibition (SF-268 (CNS cancer); c 4.00 μM, triplicate values): 23.4% and 24.41%
- cell inhibition (SF-268 (CNS cancer); c 8.00 μM, triplicate values): 23.23% and 26.17%
- cell inhibition (SF-268 (CNS cancer); c 16.00 μM, triplicate values): 25.97% and 27.9%
- cell inhibition (SF-268 (CNS cancer); c 32.00 μM, triplicate values): 33.15% and 30.82%
- cell inhibition (SF-268 (CNS cancer); c 64.00 μM, triplicate values): 67.13% and 67.17%
- cell inhibition (SF-268 (CNS cancer); c 128.00 μM, triplicate values): 70.54% and 72.29%
